Reference: ChEMBL document CHEMBL2074530, “Interaction of ivermectin with multidrug resistance proteins (MRP1, 2 and 3)” (Chem Biol Interact, 2006)

Target: Multidrug resistance-associated protein 1 (Homo sapiens, UniProt P33527)
Test: TP_TRANSPORTER: inhibition of BODIPY-ivermectin transport in HL60-MRP1 cells
Format: functional, cell-based

Chain of Multidrug resistance-associated protein 1 (P33527 whole entry): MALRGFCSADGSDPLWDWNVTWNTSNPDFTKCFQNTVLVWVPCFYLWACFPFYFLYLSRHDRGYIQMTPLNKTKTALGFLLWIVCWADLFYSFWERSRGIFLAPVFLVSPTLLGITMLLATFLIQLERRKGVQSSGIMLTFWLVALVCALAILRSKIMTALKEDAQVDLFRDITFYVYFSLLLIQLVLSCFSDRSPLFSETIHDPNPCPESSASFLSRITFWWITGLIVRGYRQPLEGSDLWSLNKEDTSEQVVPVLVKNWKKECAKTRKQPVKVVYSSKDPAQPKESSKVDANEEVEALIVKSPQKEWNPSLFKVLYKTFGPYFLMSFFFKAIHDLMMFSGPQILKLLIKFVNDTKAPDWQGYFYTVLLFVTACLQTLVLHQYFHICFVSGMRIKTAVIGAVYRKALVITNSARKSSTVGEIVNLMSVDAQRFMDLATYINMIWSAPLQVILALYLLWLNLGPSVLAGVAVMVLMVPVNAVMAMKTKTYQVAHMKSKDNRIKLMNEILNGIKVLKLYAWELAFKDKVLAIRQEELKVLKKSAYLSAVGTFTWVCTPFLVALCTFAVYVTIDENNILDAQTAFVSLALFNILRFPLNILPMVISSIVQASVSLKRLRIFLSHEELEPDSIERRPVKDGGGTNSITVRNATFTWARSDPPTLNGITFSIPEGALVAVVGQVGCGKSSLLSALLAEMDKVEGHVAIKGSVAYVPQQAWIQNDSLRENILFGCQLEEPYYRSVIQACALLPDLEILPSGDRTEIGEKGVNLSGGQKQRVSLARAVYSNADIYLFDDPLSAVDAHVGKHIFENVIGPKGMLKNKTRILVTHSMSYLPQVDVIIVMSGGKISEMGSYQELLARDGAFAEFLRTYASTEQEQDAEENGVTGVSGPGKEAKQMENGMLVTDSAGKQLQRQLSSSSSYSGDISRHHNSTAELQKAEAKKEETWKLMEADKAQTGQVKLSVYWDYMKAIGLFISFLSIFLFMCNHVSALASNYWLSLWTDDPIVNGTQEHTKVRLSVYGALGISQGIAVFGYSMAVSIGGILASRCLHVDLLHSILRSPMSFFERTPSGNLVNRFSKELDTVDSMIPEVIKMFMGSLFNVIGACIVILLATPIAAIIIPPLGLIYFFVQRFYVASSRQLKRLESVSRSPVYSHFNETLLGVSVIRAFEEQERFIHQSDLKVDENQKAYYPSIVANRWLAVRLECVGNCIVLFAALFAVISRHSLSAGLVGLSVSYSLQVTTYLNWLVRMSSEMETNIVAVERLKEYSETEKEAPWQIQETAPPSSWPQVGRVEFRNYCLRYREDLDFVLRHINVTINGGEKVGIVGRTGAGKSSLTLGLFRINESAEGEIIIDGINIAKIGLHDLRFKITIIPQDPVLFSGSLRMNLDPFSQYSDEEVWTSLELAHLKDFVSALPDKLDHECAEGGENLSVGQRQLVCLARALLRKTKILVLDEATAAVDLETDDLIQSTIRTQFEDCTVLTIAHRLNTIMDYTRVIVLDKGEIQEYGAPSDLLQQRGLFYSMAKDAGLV

Activity: inhibitor [+]
Sequence: IVERMECTIN
